What was measured:
[1] = tested on: T17 cells (TrkA stably transfected SN56 cells); assay: Cell-based apoptotic assay: protection of TrkA-expressing T17 cells from staurosporine-initiated apoptosis, MR(DEVD)2 caspase-3 dye; parameters: species or system murine; conditions: 0.5 μM pre-incubation, then 1 μM STS for 9 h; compared with NGF
Description: In order to identify small molecules that mimic NGF and activate TrkA, we developed a cell-based apoptotic assay using a cell permeable fluorescent dye MR([…])2, which turns red upon caspase-3 cleavage in apoptotic cells. We utilized a murine cell line T17, which was derived from basal forebrain SN56 cells. T17 cells are TrkA stably transfected SN56 cells. The candidates selectively protecting T17 but not SN56 cells from the first round screen can then be subjected to neurite outgrowth assay for the secondary screen. The positive compounds can be analyzed for TrkA tyrosine phosphorylation, Akt and MAP kinases signaling cascade activation.
T17 cells can be cultured in 96-well plates and preincubated with 10 μM compounds for 30 min, followed by 1 μM staurosporine (STS) treatment for 9 h. MR(DEVD)2 can be introduced to the cells 1 h before examination under fluorescent microscope. The apoptotic cells are red, while live cells have no signal. […] Using the caspase-3-activated fluorescent dye as a visual assay, one can screen the gambogic amine compounds.
To compare the apoptosis inhibitory activity of various compounds, one can pre-incubate gambogic amines derivatives (0.5 μM) with T17 and SN56 cells, followed by 1 μM STS for 9 h. Quantitative analysis of the apoptosis inhibitory activities can determine whether the compounds protect SN56 cells from apoptosis.
T17 cells can be seeded in a 96-well plate at 10,000 cells/well in 100 μl complete medium. Cells can be incubated overnight, followed by 30 min pretreatment with 10 μM compounds in DMSO (10 mM stock concentration from The Spectrum Collection library). The cells can then be treated with 1 μM Staurosporine for 9 h. One h before the termination of the experiment, 10 μM MR(DEVD)2, a cell permeable caspase-3-activated fluorescent dye can be introduced. Cells can be fixed with 4% paraformaldehyde for 15 min. Cells can then be washed with PBS and incubated with 1 μg/ml of Hoechst 33342 for 10 min. Cover slides can then be washed with PBS, mounted, and examined using a fluorescence microscope.

hippocampal neurons = assay: OGD (Oxygen and Glucose Deprivation) neuronal cell death in hippocampal neurons; format: cell-based; conditions: in vitro
Description: NGF overexpression decreases infarct volume and neuronal apoptosis in transgenic mice or intraventricular injected mice (Guegan et al., 1998; Luk et al., 2004). NGF also potently protects PC12 cells from apoptosis in an OGD (Oxygen-glucose-deprivation) model (Tabakman et al., 2005). To explore whether test compounds might exert any protective effect on hippocampal neurons in OGD, the primary preparations can be pre-treated with NGF or test compounds 30 min before OGD stimulation. […] Titration assays can show whether the compounds protect neurons in a dose-dependent manner. Therefore, the assay can identify compounds which selectively protect TrkA expression cells and primary neurons from apoptosis.
NGF overexpression decreases infarct volume and neuronal apoptosis in transgenic mice or intraventricular injected mice (Guegan et al., 1998; Luk et al., 2004). NGF also potently protects PC12 cells from apoptosis in an OGD (Oxygen-glucose-deprivation) model (Tabakman et al., 2005). To explore whether gambogic amines exert any protective effect on hippocampal neurons in OGD, one can pre-treat the primary preparations with NGF or various compounds 30 min before OGD stimulation. […] Titration assays can reveal whether or not the compounds protect neurons in a dose-dependent manner. […]

## CC(C)=CCC[C@]1(C)C=Cc2c(O)c3c(c(CC=C(C)C)c2O1)O[C@]12C(=C[C@@H]4CC1C(C)(C)O[C@@]2(C/C=C(/C)C(N)=O)C4=O)C3=O [gambogic amide]
[1]
  apoptosis inhibitory activity in T17 cells: strongly suppress apoptosis in T17 cells with protective activities even stronger than NGF
Hippocampal neurons
  protection of hippocampal neurons from OGD neuronal cell death: potent neurotrophic effects

From US20130137760A1, “GAMBOGIC AMINE, A SELECTIVE TRKA AGONIST WITH NEUROPROTECTIVE ACTIVITY” (EMORY UNIVERSITY, priority 2007, published 2013)
